Laboratory results from patent US20250136578A1 (Kolm Therapeutics Inc., priority 2023, published 2025).

Experiments:
[1] = molecular target: AR / CBP ternary complex (Homo sapiens, UniProt P10275+Q92793); assay: Ternary complex formation assay (sandwich ELISA, AR capture, CBP antibody detection) in VCaP cell lysates; assay type: cell-based; conditions: treated 1.5 hours, rabbit CBP or p300 antibody detection, average, read-out: Average Ternary Complex
In short: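 Sandwich ELISA: plates were coated with anti-AR antibody (AR441) and given lysates of VCaP cells treated 1.5 h with bifunctional compound in charcoal-stripped serum. Co-captured CBP or p300 was probed with rabbit mAbs and HRP secondary. Chemifluorescent signal (ex 570/em 585) was read at 0, 5 and 15 min.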

[2] = tested on: VCaP cells; assay: VCaP growth inhibition assay (CTG); assay type: cell-based; conditions: Homo sapiens, 216 h, 30 pM R1881, 9 days
In short: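 Growth was measured by CTG luminescence after a 9-day exposure of VCaP cells to compound (final 10 fM–100 nM, fivefold steps) in the presence of 30 pM final R1881, in phenol red-free DMEM/5% CSS. IC50 values were derived by nonlinear 4-parameter regression of RLU against concentration.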

Chain of AR / CBP ternary complex (P10275 whole entry): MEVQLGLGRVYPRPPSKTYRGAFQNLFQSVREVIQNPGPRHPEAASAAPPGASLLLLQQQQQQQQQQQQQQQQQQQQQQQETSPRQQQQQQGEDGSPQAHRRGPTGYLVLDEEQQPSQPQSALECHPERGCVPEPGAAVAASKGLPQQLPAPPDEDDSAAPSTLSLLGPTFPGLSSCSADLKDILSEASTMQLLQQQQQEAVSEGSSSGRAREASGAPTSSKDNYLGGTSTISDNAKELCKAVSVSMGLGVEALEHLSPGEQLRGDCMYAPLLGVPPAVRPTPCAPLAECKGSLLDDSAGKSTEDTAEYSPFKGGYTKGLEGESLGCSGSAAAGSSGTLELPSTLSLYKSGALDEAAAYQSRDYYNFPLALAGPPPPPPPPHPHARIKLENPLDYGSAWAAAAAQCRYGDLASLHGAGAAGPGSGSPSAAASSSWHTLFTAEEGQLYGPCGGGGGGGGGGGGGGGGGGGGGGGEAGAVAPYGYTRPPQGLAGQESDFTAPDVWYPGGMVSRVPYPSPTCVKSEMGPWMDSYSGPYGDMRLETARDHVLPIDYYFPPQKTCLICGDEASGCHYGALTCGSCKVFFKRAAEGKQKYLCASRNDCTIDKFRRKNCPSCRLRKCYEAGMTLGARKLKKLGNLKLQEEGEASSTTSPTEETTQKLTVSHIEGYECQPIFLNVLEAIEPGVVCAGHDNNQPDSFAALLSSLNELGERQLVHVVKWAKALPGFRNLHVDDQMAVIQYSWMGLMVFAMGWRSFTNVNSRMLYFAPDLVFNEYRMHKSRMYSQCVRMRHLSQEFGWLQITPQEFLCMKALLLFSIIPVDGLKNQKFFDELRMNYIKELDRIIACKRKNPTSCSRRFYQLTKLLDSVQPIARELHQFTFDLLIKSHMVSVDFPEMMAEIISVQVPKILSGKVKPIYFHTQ
Chain of AR / CBP ternary complex (Q92793 2-2442): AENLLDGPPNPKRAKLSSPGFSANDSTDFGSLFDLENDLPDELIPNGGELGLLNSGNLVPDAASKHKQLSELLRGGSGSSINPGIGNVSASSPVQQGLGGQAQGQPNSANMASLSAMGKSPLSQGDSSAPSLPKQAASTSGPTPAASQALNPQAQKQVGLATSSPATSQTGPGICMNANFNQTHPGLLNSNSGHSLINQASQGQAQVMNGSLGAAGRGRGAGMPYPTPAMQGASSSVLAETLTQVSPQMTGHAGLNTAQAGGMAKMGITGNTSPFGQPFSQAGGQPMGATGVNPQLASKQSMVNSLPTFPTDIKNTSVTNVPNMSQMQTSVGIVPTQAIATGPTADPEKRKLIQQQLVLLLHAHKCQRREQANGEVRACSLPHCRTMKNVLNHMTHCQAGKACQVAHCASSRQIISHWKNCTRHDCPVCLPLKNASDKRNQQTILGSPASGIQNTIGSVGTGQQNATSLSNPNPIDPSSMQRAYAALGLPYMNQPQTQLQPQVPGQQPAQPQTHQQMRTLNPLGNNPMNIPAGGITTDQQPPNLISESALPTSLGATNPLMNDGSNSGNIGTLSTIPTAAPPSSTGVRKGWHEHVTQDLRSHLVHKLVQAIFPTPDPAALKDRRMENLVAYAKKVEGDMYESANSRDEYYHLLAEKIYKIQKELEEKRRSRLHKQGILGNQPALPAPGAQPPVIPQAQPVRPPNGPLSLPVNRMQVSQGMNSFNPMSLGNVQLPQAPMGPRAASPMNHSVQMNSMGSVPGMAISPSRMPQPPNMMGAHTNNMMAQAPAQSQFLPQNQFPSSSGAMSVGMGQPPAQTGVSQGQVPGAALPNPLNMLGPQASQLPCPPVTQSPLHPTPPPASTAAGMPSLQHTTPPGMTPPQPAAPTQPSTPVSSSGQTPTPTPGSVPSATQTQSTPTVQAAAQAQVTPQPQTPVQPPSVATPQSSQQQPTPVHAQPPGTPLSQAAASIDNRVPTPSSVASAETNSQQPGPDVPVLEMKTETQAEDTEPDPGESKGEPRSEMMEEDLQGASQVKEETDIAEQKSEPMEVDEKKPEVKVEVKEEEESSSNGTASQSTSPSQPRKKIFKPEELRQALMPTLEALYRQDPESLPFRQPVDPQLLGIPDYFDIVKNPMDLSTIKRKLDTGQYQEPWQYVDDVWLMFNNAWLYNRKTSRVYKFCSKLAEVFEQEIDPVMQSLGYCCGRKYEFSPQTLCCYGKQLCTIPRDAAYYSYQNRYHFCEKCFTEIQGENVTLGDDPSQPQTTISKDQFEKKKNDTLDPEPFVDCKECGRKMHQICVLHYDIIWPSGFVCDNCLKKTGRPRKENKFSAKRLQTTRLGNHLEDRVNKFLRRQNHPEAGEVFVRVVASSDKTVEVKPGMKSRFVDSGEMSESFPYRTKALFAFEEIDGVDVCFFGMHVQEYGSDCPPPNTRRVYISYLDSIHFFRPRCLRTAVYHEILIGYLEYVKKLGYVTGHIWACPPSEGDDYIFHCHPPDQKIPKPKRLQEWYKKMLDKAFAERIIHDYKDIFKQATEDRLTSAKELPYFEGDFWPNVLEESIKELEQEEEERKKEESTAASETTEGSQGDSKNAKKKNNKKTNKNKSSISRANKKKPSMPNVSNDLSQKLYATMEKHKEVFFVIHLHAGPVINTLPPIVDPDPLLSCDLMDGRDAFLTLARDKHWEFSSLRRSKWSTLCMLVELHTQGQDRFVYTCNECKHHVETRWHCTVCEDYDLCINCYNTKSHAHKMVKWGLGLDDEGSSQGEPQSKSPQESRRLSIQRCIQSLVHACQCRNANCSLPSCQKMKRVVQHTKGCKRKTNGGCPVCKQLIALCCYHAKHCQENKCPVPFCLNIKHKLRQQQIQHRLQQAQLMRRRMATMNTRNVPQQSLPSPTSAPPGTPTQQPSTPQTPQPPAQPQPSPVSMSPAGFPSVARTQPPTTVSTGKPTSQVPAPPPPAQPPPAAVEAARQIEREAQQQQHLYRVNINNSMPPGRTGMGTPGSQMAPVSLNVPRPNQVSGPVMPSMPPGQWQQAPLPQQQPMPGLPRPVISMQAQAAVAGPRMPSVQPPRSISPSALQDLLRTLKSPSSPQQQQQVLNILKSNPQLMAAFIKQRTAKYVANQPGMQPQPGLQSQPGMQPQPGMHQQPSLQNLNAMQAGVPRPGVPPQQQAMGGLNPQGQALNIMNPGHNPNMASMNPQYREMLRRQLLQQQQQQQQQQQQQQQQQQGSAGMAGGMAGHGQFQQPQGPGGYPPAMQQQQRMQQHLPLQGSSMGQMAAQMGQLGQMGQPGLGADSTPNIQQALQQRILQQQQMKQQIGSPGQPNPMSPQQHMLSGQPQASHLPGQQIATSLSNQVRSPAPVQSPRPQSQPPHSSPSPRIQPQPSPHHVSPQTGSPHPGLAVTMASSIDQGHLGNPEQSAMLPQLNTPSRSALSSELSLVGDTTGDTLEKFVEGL

SMILES	EC50 [1] [nM]	IC50 [2] [nM]
CC(=O)N1CCc2c(c(N3CCCc4cc(-c5cnn(C)c5)c(C(F)F)cc43)nn2C2CC3(CCN(C4CCN(c5ccc(C(=O)N[C@H]6CC[C@H](Oc7ccc(C#N)c(Cl)c7)CC6)nn5)CC4)CC3)C2)C1 [Compound 239, 6-[4-[2-[5-acetyl-3-[7-(difluoromethyl)-6-(1-methylpyrazol-4-yl)-3,4-dihydro-2H-quinolin-1-yl]-6,7-dihydro-4H-pyrazolo[4,3-c]pyridin-1-yl]-7-azaspiro[3.5]nonan-7-yl]-1-piperidyl]-N-[4-(3-chloro-4-cyano-phenoxy)cyclohexyl]pyridazine-3-carboxamide]	< 1	≤ 0.1
CC(=O)N1CCc2c(c(N3CCCc4cc(-c5cnn(C)c5)c(C(F)F)cc43)nn2C2CCN([C@H]3C[C@H](Oc4ccc(C(=O)N[C@H]5CC[C@H](Oc6ccc(C#N)c(Cl)c6)CC5)nn4)C3)CC2)C1 [Compound 240, 6-[3-[4-[5-acetyl-3-[7-(difluoromethyl)-6-(1-methylpyrazol-4-yl)-3,4-dihydro-2H-quinolin-1-yl]-6,7-dihydro-4H-pyrazolo[4,3-c]pyridin-1-yl]-1-piperidyl]cyclobutoxy]-N-[4-(3-chloro-4-cyano-phenoxy)cyclohexyl]pyridazine-3-carboxamide]	< 1	0.1 to 1
CC(=O)N1CCc2c(c(N3CCCc4cc(-c5cnn(C)c5)c(C(F)F)cc43)nn2[C@H]2CC[C@H](C3CCC4(CC3)CN(c3ccc(C(=O)N[C@H]5CC[C@H](Oc6ccc(C#N)c(Cl)c6)CC5)nn3)C4)CC2)C1 [Compound 241, 6-[7-[4-[5-acetyl-3-[7-(difluoromethyl)-6-(1-methylpyrazol-4-yl)-3,4-dihydro-2H-quinolin-1-yl]-6,7-dihydro-4H-pyrazolo[4,3-c]pyridin-1-yl]cyclohexyl]-2-azaspiro[3.5]nonan-2-yl]-N-[4-(3-chloro-4-cyano-phenoxy)cyclohexyl]pyridazine-3-carboxamide]	1 to 10	0.1 to 1
CC(=O)N1CCc2c(c(N3CCCc4cc(-c5cnn(C)c5)c(C(F)F)cc43)nn2[C@H]2CC[C@@H](C3CCC4(CC3)CN(c3ccc(C(=O)N[C@H]5CC[C@H](Oc6ccc(C#N)c(Cl)c6)CC5)nn3)C4)CC2)C1 [Compound 242, 6-[7-[4-[5-acetyl-3-[7-(difluoromethyl)-6-(1-methylpyrazol-4-yl)-3,4-dihydro-2H-quinolin-1-yl]-6,7-dihydro-4H-pyrazolo[4,3-c]pyridin-1-yl]cyclohexyl]-2-azaspiro[3.5]nonan-2-yl]-N-[4-(3-chloro-4-cyano-phenoxy)cyclohexyl]pyridazine-3-carboxamide]	< 1	0.1 to 1
COC(=O)N1c2ccc3c(nc(Cc4ccccc4)n3[C@@H]3CCC[C@H](OC4CCN(c5ccc(C(=O)N[C@H]6CC[C@H](Oc7ccc(C#N)c(Cl)c7)CC6)nn5)CC4)C3)c2CC[C@@H]1C [Compound 244, methyl (7S)-2-benzyl-3-[3-[[1-[6-[[4-(3-chloro-4-cyano-phenoxy)cyclohexyl]carbamoyl]pyridazin-3-yl]-4-piperidyl]oxy]cyclohexyl]-7-methyl-8,9-dihydro-7H-imidazo[4,5-f]quinoline-6-carboxylate]	< 1	0.1 to 1
CC(=O)N1CCc2c(c(N3CCCc4cc(-c5cnn(C)c5)c(C(F)F)cc43)nn2C2CCN(C3CCC4(CC3)CC(Oc3ccc(C(=O)N[C@H]5CC[C@H](Oc6ccc(C#N)c(Cl)c6)CC5)nn3)C4)CC2)C1 (stereo partly shown) [Compound 245, 6-[7-[4-[5-acetyl-3-[7-(difluoromethyl)-6-(1-methylpyrazol-4-yl)-3,4-dihydro-2H-quinolin-1-yl]-6,7-dihydro-4H-pyrazolo[4,3-c]pyridin-1-yl]-1-piperidyl]spiro[3.5]nonan-2-yl]oxy-N-[4-(3-chloro-4-cyano-phenoxy)cyclohexyl]pyridazine-3-carboxamide]	< 1	≤ 0.1
CC(=O)N1CCc2c(c(N3CCCc4cc(-c5cnn(C)c5)c(C(F)F)cc43)nn2C2CCC3(CC2)CC(Oc2ccc(C(=O)N[C@H]4CC[C@H](Oc5ccc(C#N)c(C(F)(F)F)c5)CC4)nn2)C3)C1 (stereo partly shown) [Compound 246, 6-[7-[5-acetyl-3-[7-(difluoromethyl)-6-(1-methylpyrazol-4-yl)-3,4-dihydro-2H-quinolin-1-yl]-6,7-dihydro-4H-pyrazolo[4,3-c]pyridin-1-yl]spiro[3.5]nonan-2-yl]oxy-N-[4-[4-cyano-3-(trifluoromethyl)phenoxy]cyclohexyl]pyridazine-3-carboxamide]	< 1	1 to 100

Continued, values first:

EC50 [1] [nM]	IC50 [2] [nM]	SMILES
< 1	≤ 0.1	CC(=O)N1CCc2c(c(N3CCCc4cc(-c5cnn(C)c5)c(C(F)F)cc43)nn2C2CCN(C3CC4(CC(Oc5ccc(C(=O)N[C@H]6CC[C@H](Oc7ccc(C#N)c(Cl)c7)CC6)nn5)C4)C3)CC2)C1 (stereo partly shown) [Compound 247, 6-[6-[4-[5-acetyl-3-[7-(difluoromethyl)-6-(1-methylpyrazol-4-yl)-3,4-dihydro-2H-quinolin-1-yl]-6,7-dihydro-4H-pyrazolo[4,3-c]pyridin-1-yl]-1-piperidyl]spiro[3.3]heptan-2-yl]oxy-N-[4-(3-chloro-4-cyano-phenoxy)cyclohexyl]pyridazine-3-carboxamide]
< 1	0.1 to 1	CC(=O)N1CCc2c(c(N3CCCc4cc(-c5cnn(C)c5)c(C(F)F)cc43)nn2[C@H]2CC[C@H](N3CCC4(CC3)CC(Oc3ccc(C(=O)N[C@H]5CC[C@H](Oc6ccc(C#N)c(Cl)c6)CC5)nn3)C4)CC2)C1 [Compound 248]
< 1	≤ 0.1	CC(=O)N1CCc2c(c(N3CCCc4cc(-c5cnn(C)c5)c(C(F)F)cc43)nn2[C@H]2CC[C@H](N3CC4(CC(Oc5ccc(C(=O)N[C@H]6CC[C@H](Oc7ccc(C#N)c(Cl)c7)CC6)nn5)C4)C3)CC2)C1 [Compound 249]
< 1	≤ 0.1	CC(=O)N1CCc2c(c(N3CCCc4cc(-c5cnn(C)c5)c(C(F)F)cc43)nn2[C@H]2CC[C@H](N3CCN(c4ccc(C(=O)N[C@H]5CC[C@H](Oc6ccc(C#N)c(Cl)c6)CC5)nn4)CC3)CC2)C1 [Compound 250, 6-[4-[4-[5-acetyl-3-[7-(difluoromethyl)-6-(1-methylpyrazol-4-yl)-3,4-dihydro-2H-quinolin-1-yl]-6,7-dihydro-4H-pyrazolo[4,3-c]pyridin-1-yl]cyclohexyl]piperazin-1-yl]-N-[4-(3-chloro-4-cyano-phenoxy)cyclohexyl]pyridazine-3-carboxamide]
< 1	≤ 0.1	CC(=O)N1CCc2c(c(N3CCCc4cc(-c5cnn(C)c5)c(C(F)F)cc43)nn2C2CCN(C3CC4(CCC(Oc5ccc(C(=O)N[C@H]6CC[C@H](Oc7ccc(C#N)c(Cl)c7)CC6)nn5)CC4)C3)CC2)C1 (stereo partly shown) [Compound 252, 6-[2-[4-[5-acetyl-3-[7-(difluoromethyl)-6-(1-methylpyrazol-4-yl)-3,4-dihydro-2H-quinolin-1-yl]-6,7-dihydro-4H-pyrazolo[4,3-c]pyridin-1-yl]-1-piperidyl]spiro[3.5]nonan-7-yl]oxy-N-[4-(3-chloro-4-cyano-phenoxy)cyclohexyl]pyridazine-3-carboxamide]
< 1	≤ 0.1	CC(=O)N1CCc2c(c(N3CCCc4cc(-c5cscn5)c(C(F)F)cc43)nn2C2CCN(CC3CCN(c4ccc(C(=O)N[C@H]5CC[C@H](Oc6ccc(C#N)c(Cl)c6)CC5)nn4)CC3)CC2)C1 [Compound 253, 6-[4-[[4-[5-acetyl-3-[7-(difluoromethyl)-6-thiazol-4-yl-3,4-dihydro-2H-quinolin-1-yl]-6,7-dihydro-4H-pyrazolo[4,3-c]pyridin-1-yl]-1-piperidyl]methyl]-1-piperidyl]-N-[4-(3-chloro-4-cyano-phenoxy)cyclohexyl] pyridazine-3-carboxamide]
< 1	≤ 0.1	CC(=O)N1CCc2c(c(N3CCCc4cc(-c5ccn(C)n5)c(C(F)F)cc43)nn2C2CCN(CC3CCN(c4ccc(C(=O)N[C@H]5CC[C@H](Oc6ccc(C#N)c(Cl)c6)CC5)nn4)CC3)CC2)C1 [Compound 254, 6-[4-[[4-[5-acetyl-3-[7-(difluoromethyl)-6-(1-methylpyrazol-3-yl)-3,4-dihydro-2H-quinolin-1-yl]-6,7-dihydro-4H-pyrazolo[4,3-c]pyridin-1-yl]-1-piperidyl]methyl]-1-piperidyl]-N-[4-(3-chloro-4-cyano-phenoxy)cyclohexyl]pyridazine-3-carboxamide]
< 1	0.1 to 1	CC(=O)N1CCc2c(c(N3CCCc4cc(-c5nccs5)c(C(F)F)cc43)nn2C2CCN(CC3CCN(c4ccc(C(=O)N[C@H]5CC[C@H](Oc6ccc(C#N)c(Cl)c6)CC5)nn4)CC3)CC2)C1 [Compound 255, 6-[4-[[4-[5-acetyl-3-[7-(difluoromethyl)-6-thiazol-2-yl-3,4-dihydro-2H-quinolin-1-yl]-6,7-dihydro-4H-pyrazolo[4,3-c]pyridin-1-yl]-1-piperidyl]methyl]-1-piperidyl]-N-[4-(3-chloro-4-cyano-phenoxy)cyclohexyl]pyridazine-3-carboxamide]
< 1	0.1 to 1	CC(=O)N1CCc2c(c(N3CCCc4cc(-c5ncco5)c(C(F)F)cc43)nn2C2CCN(CC3CCN(c4ccc(C(=O)N[C@H]5CC[C@H](Oc6ccc(C#N)c(Cl)c6)CC5)nn4)CC3)CC2)C1 [Compound 256, 6-[4-[[4-[5-acetyl-3-[7-(difluoromethyl)-6-oxazol-2-yl-3,4-dihydro-2H-quinolin-1-yl]-6,7-dihydro-4H-pyrazolo[4,3-c]pyridin-1-yl]-1-piperidyl]methyl]-1-piperidyl]-N-[4-(3-chloro-4-cyano-phenoxy)cyclohexyl] pyridazine-3-carboxamide]
1 to 10	0.1 to 1	COC(=O)N1c2ccc3c(nc(Cc4ccccc4)n3[C@@H]3CCC[C@H](OCC4CCN(c5ccc(C(=O)N[C@H]6CC[C@H](Oc7ccc(C#N)c(Cl)c7)CC6)nn5)CC4)C3)c2CC[C@@H]1C [Compound 257]
